# Measured values published in patent publication US7678812B2, “Aminotetralin-derived urea modulators of vanilloid VR1 receptor” (Janssen Pharmaceutica NV, priority 2002, dated 2010).
# “And” between values parts separate entries of the source, which are not always exact repeats. Equal entries are not always repeated. Where two headings read alike, the source gives them in different places.
# Experiments:
# [1] = tested on: carrageenan paw-induced thermal hyperalgesia; test: Carrageenan paw-induced thermal hyperalgesia; assay type: in vivo, rat; details: Rattus norvegicus, po
# Procedure: Each rat was placed on a heated surface (51° C.) in order to measure the time necessary to elicit a response, and an initial (baseline) response time to a thermal stimuli was recorded for each animal. A response is defined as any shaking, licking, or tucking of the treated paw or jumping. Animals not treated with a test compound respond in approximately 20 seconds. The maximal exposure time permitted is 60 seconds to prevent tissue damage. Rats were injected with an irritant (e.g., 1% carrageenan solution in 0.9% saline) subcutaneously into the sub-plantar tissue of the left hind paw to stimulate an acute inflammatory reaction.
# Two hours later, the response time of the animal to the thermal stimulus was evaluated and compared to the animal's baseline response time. This shorter response time was recorded as percent hyperalgesia (% H). A cut-off value for % H (usually 75%) was used during analysis to ensure that the animals were hyperalgesic. Animals were then dosed with test drug or vehicle.
# At some time(s) later (typically 45 and 90 minutes), the response time of the animal to the thermal stimulus was again evaluated. For each time point, a percent reversal of hyperalgesia (% R) was calculated using the following formula: % R=(Drug Latency−Carrageenan latency)/(Baseline latency−Carrageenan latency). ED50 values were calculated from % R obtained at several drug doses.
# [2] = tested on: capsaicin-induced guinea pig bronchial ring contraction; test: Isolated guinea pig bronchial rings, capsaicin-induced contraction (organ bath); details: capsaicin concentration-response shift; 105 at 1000 nM; ±SEM
# Procedure: Aminotetralin VR1 antagonists were tested for their potency to block capsaicin-induced guinea pig bronchial ring contraction in a standard in vitro organ bath assay [Tucker, 2001]. Two mm rings of bronchial tissue obtained from male guinea pigs (325 g) were suspended in normal Krebs solution between two wire hooks under an initial loading tension of 1 gram. The saline was maintained in a 5% CO2 and 95% O2 atmosphere at 37° C. in the presence of indomethacin (5 μM). A sub-maximal dose of 5-Methylfurmethide (5Mef, 1 μM) was added to each tissue to determine responsiveness using an isometric force transducer. After washout, tissues were exposed to compounds or vehicle for 30 min, treated with thiorphan (10 μM, 5% Na2CO3), and primed using KCl in increasing linear concentrations from 1 mM at 1 mM intervals until a slight increase in muscle tone was induced (˜1% of 5Mef response). […] The dose response curve was calculated as % max of the 5-Mef response and estimated pA2 were determined [Tucker, 2001]).
# Rat VR1 [3] = target: T1, Rat VR1 (Rattus norvegicus, UniProt O35433); test: Broadly stimulated recombinant rat VR1 functional assay (Ca2+ influx, FLIPR); assay type: cell-based; parameters: expressed in transfected cells
# T1 sequence (O35433 whole entry): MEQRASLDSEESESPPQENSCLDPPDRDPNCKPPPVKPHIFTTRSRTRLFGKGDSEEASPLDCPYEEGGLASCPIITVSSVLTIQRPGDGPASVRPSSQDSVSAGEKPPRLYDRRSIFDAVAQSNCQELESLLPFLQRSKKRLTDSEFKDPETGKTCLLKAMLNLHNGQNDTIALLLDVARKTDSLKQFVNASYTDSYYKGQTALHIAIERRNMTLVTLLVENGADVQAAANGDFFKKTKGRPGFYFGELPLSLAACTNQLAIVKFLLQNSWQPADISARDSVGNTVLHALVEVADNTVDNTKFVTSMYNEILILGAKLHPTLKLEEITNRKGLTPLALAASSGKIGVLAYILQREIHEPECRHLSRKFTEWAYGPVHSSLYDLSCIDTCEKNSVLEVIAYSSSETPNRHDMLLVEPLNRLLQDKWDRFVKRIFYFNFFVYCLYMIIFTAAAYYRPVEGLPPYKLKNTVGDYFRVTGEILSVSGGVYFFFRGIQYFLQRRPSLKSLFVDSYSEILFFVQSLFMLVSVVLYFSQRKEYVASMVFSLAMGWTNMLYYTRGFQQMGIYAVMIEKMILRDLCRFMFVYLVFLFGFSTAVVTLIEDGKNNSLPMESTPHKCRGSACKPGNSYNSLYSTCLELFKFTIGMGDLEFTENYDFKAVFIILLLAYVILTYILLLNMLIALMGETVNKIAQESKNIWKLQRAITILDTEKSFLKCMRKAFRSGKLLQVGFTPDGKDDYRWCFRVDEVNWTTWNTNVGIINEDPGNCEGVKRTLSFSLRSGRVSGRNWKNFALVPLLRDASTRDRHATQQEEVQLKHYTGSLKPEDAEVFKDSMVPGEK
# Source text: When nociceptors are exposed to tissue damaging stimuli, VR1 receptors are activated by a plethora of stimuli. In an effort to identify potent and efficacious antagonists at human and rat VR1 that were active under conditions simulating aspects of in vivo inflammation functional assays were developed using FLIPR to determine antagonist activity against endogenous activators and stimuli likely to be present in inflammation. Cell lines were constructed that stably expressed recombinant rat VR1 (rVR1/HEK293). Cells were exposed to various stimuli at their EC80, with the exception of the low pH and DTT stimuli.
# Phoshorylation by PKC. […] Cells were challenged with 300 nM PMA (˜EC80) after 3 min in the indicated antagonist.
# Anandamide. Anandamide is a brain-derived cannabinoid ligand that acts as a near full agonist at VR1 at low μM concentrations [Smart, 2000 #507].
# Reactive oxygen species: Disturbances in the regulatory activities of free radicals may play a role in inflammation [Winrow, 1993]. Reactive oxygen species (ROS) such as H2O2 are formed in inflamed joints.
# Reducing agents: The reducing agent DTT also directly activates VR1 [Vyklicky, 2002]. Cells were challenged with 5-10 mM DTT to stimulate VR1 after 3 min incubation in compound.
# Since many of our animal models were in rat, we cloned the rat VR1 and expressed it stably in HEK293 cells.
# hVR1 receptors [4] = target: T2, hVR1 receptors (Homo sapiens, UniProt Q8NER1); test: Broadly stimulated recombinant human VR1 functional assay (Ca2+ influx, FLIPR); assay type: cell-based; parameters: expressed in transfected cells; host or cells: HEK293
# T2 sequence (Q8NER1 whole entry): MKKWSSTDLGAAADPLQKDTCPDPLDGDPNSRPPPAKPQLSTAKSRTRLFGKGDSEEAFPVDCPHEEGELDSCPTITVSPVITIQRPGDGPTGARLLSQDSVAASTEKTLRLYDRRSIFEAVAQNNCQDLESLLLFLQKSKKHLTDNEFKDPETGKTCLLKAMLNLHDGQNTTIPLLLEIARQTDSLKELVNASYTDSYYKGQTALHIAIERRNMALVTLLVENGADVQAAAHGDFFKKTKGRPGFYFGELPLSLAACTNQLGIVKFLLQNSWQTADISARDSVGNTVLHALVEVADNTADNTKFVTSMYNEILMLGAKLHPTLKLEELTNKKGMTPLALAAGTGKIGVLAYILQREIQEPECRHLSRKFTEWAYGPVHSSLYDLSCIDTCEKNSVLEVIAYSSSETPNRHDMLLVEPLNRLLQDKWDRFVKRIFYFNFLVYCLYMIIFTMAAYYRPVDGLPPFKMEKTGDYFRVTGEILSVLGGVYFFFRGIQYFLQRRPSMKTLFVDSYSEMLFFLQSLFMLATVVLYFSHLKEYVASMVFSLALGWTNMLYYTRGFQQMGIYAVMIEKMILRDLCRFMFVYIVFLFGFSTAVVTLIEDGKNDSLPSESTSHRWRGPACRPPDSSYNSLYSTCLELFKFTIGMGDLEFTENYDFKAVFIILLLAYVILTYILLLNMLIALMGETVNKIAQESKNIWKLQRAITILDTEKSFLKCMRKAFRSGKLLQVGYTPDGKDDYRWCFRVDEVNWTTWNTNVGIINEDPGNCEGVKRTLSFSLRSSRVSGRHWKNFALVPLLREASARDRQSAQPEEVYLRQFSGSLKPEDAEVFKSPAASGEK
# hVR1 receptors [5] = target: T2, hVR1 receptors; test: [3H] RTX binding assay, human VR1; parameters: expressed in transfected cells; host or cells: HEK293 (membrane preparation); details: inhibition of [3H] RTX binding, membranes of HEK293 cells transfected with human VR1
# Procedure: Compounds of the present invention were tested for their ability to inhibit the binding of [^3H] RTX to hVR1 receptors in a [^3H] RTX binding assay as previously described (Zhang, Sui-Po. Improved ligand binding assays for vanilloid receptors. PCT Int. Appl. (2002), 29 pp. CODEN: PIXXD2 WO 0233411 A1 20020425 AN 2002:315209; Grant, Elfrida R.; Dubin, Adrienne E.; Zhang, Sui-Po; Zivin, Robert A.; Zhong, Zhong Simultaneous intracellular calcium and sodium flux imaging in human vanilloid receptor 1 (VR1)-transfected human embryonic kidney cells: a method to resolve ionic dependence of VR1-mediated cell death. Journal of Pharmacology and Experimental Therapeutics (2002), 300(1), 9-17.)
# HEK293 cells were transfected with human VR1 vanilloid receptors and washed with Hank's Balanced Salt Solution, dissociated with cell dissociation buffer (Sigma), and then centrifuged at 1000×g for 5 min. Cell pellets were homogenized in cold 20 mM HEPES buffer, pH 7.4, containing 5.8 mM NaCl, 320 mM sucrose, 2 mM MgCl2, 0.75 CaCl2 and 5 mM KCl and centrifuged at 1000×g for 15 min. The resultant supernate was then centrifuged at 40000×g for 15 min. The pelleted membranes were kept in an −80° C. freezer.
# Approximately 120 μg protein/ml from membranes were incubated with indicated concentrations of [^3H] RTX in 0.5 ml of the HEPES buffer (pH 7.4) containing 0.25 mg/mL fatty acid-free bovine serum albumin at 37° C. for 60 min. The reaction mixture was then cooled to 4° C., 0.1 mg α1-acid glycoprotein added to each sample and incubated at 4° C. for 15 min. The samples were centrifuged at 18500×g for 15 min. The tip of the microcentrifuge tube containing the pellet was cut off. Bound radioactivity was quantified by scintillation counting. Non-specific binding was tested in the presence of 200 nM unlabeled RTX.
# [6] = target: T3, VR1 expressed endogenously on small rat dorsal root ganglion (DRG) neurons (Rattus norvegicus, UniProt O35433); test: Electrophysiologic functional assay using dissociated rat DRG cells (whole cell patch clamp); assay type: cell-based; details: compound concentration 1 uM; initial response to 0.3 uM capsaicin
# T3 construct: VR1 expressed endogenously on small rat dorsal root ganglion (DRG) neurons; endogenous in cells; host or cells: dissociated DRG neurons from normal rats
# T3 sequence (O35433 whole entry): as the sequence (O35433 whole entry) above
# Procedure: Compounds 42, 95, 101, 105 and 106 were tested for their activity on VR1 expressed endogenously on small rat dorsal root ganglion (DRG) neurons. DRG neurons from normal rats were dissociated (see methods in Chaplan et al., 2003) and whole cell currents mediated by VR1 were recorded using the whole cell patch clamp technique. […] This was followed by application of 10 μM CAP in the presence of compound. […] The ability of 1 and 10 μM CAP to cause an increased current after exposure to a compound of the invention was compared to controls.
# Rat VR1 [7] = target: T1, Rat VR1; test: [3H]-RTX binding assay using rat tissue (spinal cord); parameters: Rat spinal cord was homogenized twice with a Polytron; from tissue; host or cells: rat spinal cord membranes; details: rat spinal cord membranes
# Procedure: Alternatively, a binding assay using rat tissue was used. Rat spinal cord was homogenized twice with a Polytron and centrifuged at 3000 rpm for 10 min in HEPES buffer containing 20 mM HEPES, pH 7.4, NaCl 5.8 mM, sucrose 320 mM, MgCl2 2 mM, CaCl2 0.75 mM and KCl 5 mM. The supernatant was then centrifuged at 18,000 rpm for 20 min. The pellet was saved in a tube and 10 ml assay buffer was added into the tube. The pellet and buffer were mixed with a Polytron. The assay contained 120 μg/ml membrane protein and 0.3-0.6 nM [^3H]-RTX (NEN, Boston) in a total volume of 0.5 ml HEPES buffer. Following-incubation for 60 min at 37 C, the samples were cooled down on ice, and 100 mg of α-acid glycoprotein were added into the samples. After centrifugation at 13,000 rpm for 15 min, the supernatant was aspirated and the tips of tubes were cut off and placed into 6 ml vials. Data were calculated according to the equation: % inhibition=(total binding−binding)*100/(total binding−non specific binding). Ki value values were calculated using a Prism program.
# [8] = tested on: capsaicin-induced cough responses; test: Capsaicin-induced cough (antitussive efficacy); assay type: in vivo, guinea pig; details: codeine 25 mg/kg IP at -60 min; capsaicin aerosol 15 μM; vehicle 3.0±0.5; P<0.001
# Procedure: The antitussive activity of intraperitoneally (IP) administered compound is assessed at a single dose level against capsaicin-induced cough responses as compared to positive and vehicle controls. Thirty-six male Dunkin-Hartley guinea pigs (295-590 g, mean=425 g) are randomly allocated to one of three groups (n=12 guinea pigs per group). […] Guinea pigs are dosed IP at —60 min with vehicle (15% Solutol in 5% dextrose solution); the positive control codeine (25 mg/kg), or test compound (20 mg/kg in 15% Solutol in 5% dextrose solution). Individual guinea pigs are placed in an exposure chamber with an airflow of 3 L/min at —10 min to acclimatize. […] The mean ±SEM number of capsaicin-induced cough responses recorded in vehicle pre-treated guinea pigs was 3.0±0.5. […] ANOVA statistical analysis was used to determine the level of significance.
# [9] = recombinant rat VR1, stimulus anandamide 10 μM, Ca2+ influx, read-out: IC50, Anandamide
# [10] = recombinant human VR1, stimulus low pH (pH 6.5), Ca2+ influx, read-out: IC50, Low pH
smiles,measurement,setting,value
"COc1ccc2c(c1)CCC(NC(=O)Nc1cccc3cnccc13)C2Cc1ccccc1 (stereo not drawn) [Compound 33, 1-(1-Benzyl-6-methoxy-1,2,3,4-tetrahydronaphthalene-2-yl)-3-isoquinolin-5-yl-urea]",ED50,"[1]; reversal of hyperalgesia, read-out: CgHP ED50",0.276 mg/kg
same,Estimated pA2,[2],8.0 +/− 0.02
same,"increase in intracellular Ca2+ caused by acidic solutions, anandamide, PMA at low pH and H2O2","Rat VR1 [3]; rat recombinant VR1, 3 min incubation in antagonist, dose dependent",completely abolished
same,IC50,"Rat VR1 [3]; recombinant rat VR1, PMA at low pH, Ca2+ influx, read-out: IC50, PKC phosphorylation at low pH",47 nM
same,IC50,"Rat VR1 [3]; recombinant rat VR1, stimulus 0.015% H2O2, Ca2+ influx, read-out: IC50, H2O2",33 nM
same,IC50,Rat VR1 [3]; [9],38 nM
same,IC50,"Rat VR1 [3]; recombinant rat VR1, stimulus low pH (pH 5.9), Ca2+ influx, read-out: IC50, Low pH",170 nM
same,"increase in intracellular Ca2+ caused by acidic solutions, anandamide, PMA and H2O2","hVR1 receptors [4]; human recombinant VR1, 3 min incubation in antagonist, dose dependent",completely abolished
same,IC50,"hVR1 receptors [4]; recombinant human VR1, PMA at low pH, Ca2+ influx, read-out: IC50, PKC phosphorylation at low pH",70 nM
same,IC50,"hVR1 receptors [4]; recombinant human VR1, stimulus 0.015% H2O2, Ca2+ influx, read-out: IC50, H2O2 reactive oxygen species",39 nM
same,IC50,"hVR1 receptors [4]; recombinant human VR1, stimulus anandamide 10 μM, Ca2+ influx, read-out: IC50, Anandamide",41 nM
same,IC50,hVR1 receptors [4]; [10],23 nM and 40 nM
same,Ki,hVR1 receptors [5],3.37 nM
"Cl.Cl.Cl.Cl.Cl.Cl.N.N.N.N.N.N.N.N.N.N.N.N.N.N.[O-2].[O-2].[Ru+3].[Ru+3].[Ru+4] [Ruthenium Red, ruthenium red, reference compound]",IC50,"Rat VR1 [3]; recombinant rat VR1, stimulus 300 nM PMA, Ca2+ influx, read-out: IC50, PKC phosphorylation",300 nM
same,IC50,Rat VR1 [3]; [9],1860 nM
same,IC50,"hVR1 receptors [4]; recombinant human VR1, stimulus 300 nM PMA, Ca2+ influx, read-out: IC50, PKC phosphorylation",500 nM
same,IC50,hVR1 receptors [4]; [10],500 nM
"O=C(Nc1cccc2c(Cl)nccc12)NC1CCc2cc(F)ccc2C1Cc1ccccc1 (single isomer, unassigned) [Compound 105]",% of the initial CAP response in presence of 1 uM CAP,[6],0% and 8%
same,ED50,"[1]; 1.5 h, p.o., at 90 min, read-out: ED50",0.394 mg/kg
same,Estimated pA2,[2],6.2 and 6.2±0.11 and 6.2 +/− 0.11
same,Ki,hVR1 receptors [5],10.8 nM
same,Ki,Rat VR1 [7],4920 nM
COc1ccc2c3c1O[C@H]1[C@@H](O)C=C[C@H]4[C@@H](C2)N(C)CC[C@@]341 [codeine],number of capsaicin-induced cough responses (mean ±SEM),[8],0.58±0.15 coughs
"CCCCCCCCCCCCCC(=O)O[C@@H]1[C@@H](C)[C@@]2(O)[C@@H](C=C(CO)C[C@]3(O)C(=O)C(C)=C[C@@H]23)[C@@H]2C(C)(C)[C@]12OC(C)=O [PMA, phorbol-12-myristate-13-acetate, reference compound]",EC50,"Rat VR1 [3]; rat recombinant VR1, increase in intracellular Ca2+, read-out: EC50 for PMA",90 nM
same,EC50,"hVR1 receptors [4]; human recombinant VR1, increase in intracellular Ca2+, read-out: EC50 for PMA",90 nM
"O=C(Nc1cccc2cnccc12)NC1CCc2cc(F)ccc2C1Cc1ccccc1 (racemic) [Compound 38a, 1-(1-Benzyl-6-fluoro-1,2,3,4-tetrahydronaphthalene-2-yl)-3-isoquinolin-5-yl-urea]",Estimated pA2,[2],8.0 and 8.0±0.02
same,Ki,hVR1 receptors [5],1.76 nM
